Species: Rattus norvegicus
Test: DrugMatrix - Regimen: Daily Repeat
Format: toxicity, organism-based, Sprague-Dawley
Parameters: regimen Daily Repeat, gender Male, age 6-8 weeks
Conditions: in vivo, po, route oral GAVAGE, vehicle .5 % CMC; for BASOPHIL / EOSINOPHIL / ERYTHROCYTE COUNT / HEMATOCRIT / HEMOGLOBIN / LEUKOCYTE COUNT / LYMPHOCYTE / MEAN CORPUSCULAR HEMOGLOBIN / MEAN CORPUSCULAR HEMOGLOBIN CONCENTRATION / MEAN CORPUSCULAR VOLUME / MONOCYTE / NEUTROPHIL / PLATELET COUNT: tissue Blood; for ALANINE AMINOTRANSFERASE / ALBUMIN / ALKALINE PHOSPHATASE / ASPARTATE AMINOTRANSFERASE / BLOOD UREA NITROGEN / CHLORIDE / CHOLESTEROL / CREATINE PHOSPHOKINASE / CREATININE / GLUCOSE / PHOSPHORUS / POTASSIUM / SODIUM / TOTAL BILIRUBIN / TOTAL PROTEIN: tissue Plasma
[1] = 0.09 mg/kg, 120 h, dose level Low, time 5 day
[2] = 0.9 mg/kg, 72 h, dose level High, time 3 day
[3] = 0.9 mg/kg, 120 h, dose level High, time 5 day

CCN1C[C@]2(COC)[C@H](O)C[C@H](OC)[C@@]34[C@@H]5C[C@@]6(O)[C@H](OC(=O)c7ccccc7)[C@@H]5[C@@](OC(C)=O)([C@@H]([C@H](OC)[C@H]23)[C@@H]14)[C@@H](O)[C@@H]6OC [ACONITINE]
BASOPHIL [1]: 0.73% | EOSINOPHIL [1]: 0.3% | ERYTHROCYTE COUNT [1]: 7.49 x10E6/uL | HEMATOCRIT [1]: 47.87% | HEMOGLOBIN [1]: 14.97 G/DL | LEUKOCYTE COUNT [1]: 9.72 x10E3/uL | LYMPHOCYTE [1]: 82.5% | MEAN CORPUSCULAR HEMOGLOBIN [1]: 20.07 pg | MEAN CORPUSCULAR HEMOGLOBIN CONCENTRATION [1]: 31.37 G/DL | MEAN CORPUSCULAR VOLUME [1]: 63.9 fL | MONOCYTE [1]: 2% | NEUTROPHIL [1]: 13.77% | PLATELET COUNT [1]: 1482.33 x10E3/uL | ALANINE AMINOTRANSFERASE [1]: 38.67 u/L | ALBUMIN [1]: 3.83 G/DL | ALKALINE PHOSPHATASE [1]: 409.67 u/L | ASPARTATE AMINOTRANSFERASE [1]: 66.33 u/L | BLOOD UREA NITROGEN [1]: 13.33 mg/dL | CHLORIDE [1]: 107 MEQ/L | CHOLESTEROL [1]: 62.67 mg/dL | CREATINE PHOSPHOKINASE [1]: 135.67 u/L | CREATININE [1]: 0.67 mg/dL | GLUCOSE [1]: 154.33 mg/dL | PHOSPHORUS [1]: 12.77 mg/dL | POTASSIUM [1]: 7.43 MEQ/L | SODIUM [1]: 151.33 MEQ/L | TOTAL BILIRUBIN [1]: 0.5 mg/dL | TOTAL PROTEIN [1]: 6.93 G/DL | BASOPHIL [2]: 0.57% | EOSINOPHIL [2]: 0.37% | ERYTHROCYTE COUNT [2]: 6.91 x10E6/uL | HEMATOCRIT [2]: 44.07% | HEMOGLOBIN [2]: 13.83 G/DL | LEUKOCYTE COUNT [2]: 11.28 x10E3/uL | LYMPHOCYTE [2]: 85.87% | MEAN CORPUSCULAR HEMOGLOBIN [2]: 20.03 pg | MEAN CORPUSCULAR HEMOGLOBIN CONCENTRATION [2]: 31.4 G/DL | MEAN CORPUSCULAR VOLUME [2]: 63.73 fL | MONOCYTE [2]: 1.8% | NEUTROPHIL [2]: 10.03% | PLATELET COUNT [2]: 1654.67 x10E3/uL | ALANINE AMINOTRANSFERASE [2]: 36 u/L | ALBUMIN [2]: 3.73 G/DL | ALKALINE PHOSPHATASE [2]: 364.67 u/L | ASPARTATE AMINOTRANSFERASE [2]: 63.33 u/L | BLOOD UREA NITROGEN [2]: 14 mg/dL | CHLORIDE [2]: 97.33 MEQ/L | CHOLESTEROL [2]: 62.67 mg/dL | CREATINE PHOSPHOKINASE [2]: 126.33 u/L | CREATININE [2]: 0.5 mg/dL | GLUCOSE [2]: 187 mg/dL | PHOSPHORUS [2]: 11.57 mg/dL | POTASSIUM [2]: 6.97 MEQ/L | SODIUM [2]: 138.67 MEQ/L | TOTAL BILIRUBIN [2]: 0.4 mg/dL | TOTAL PROTEIN [2]: 6.6 G/DL | BASOPHIL [3]: 0.47% | EOSINOPHIL [3]: 0.3% | ERYTHROCYTE COUNT [3]: 7.11 x10E6/uL | HEMATOCRIT [3]: 44.93% | HEMOGLOBIN [3]: 13.73 G/DL | LEUKOCYTE COUNT [3]: 9.26 x10E3/uL | LYMPHOCYTE [3]: 88.1% | MEAN CORPUSCULAR HEMOGLOBIN [3]: 19.37 pg | MEAN CORPUSCULAR HEMOGLOBIN CONCENTRATION [3]: 30.6 G/DL | MEAN CORPUSCULAR VOLUME [3]: 63.23 fL | MONOCYTE [3]: 1.83% | NEUTROPHIL [3]: 9.33% | PLATELET COUNT [3]: 1288 x10E3/uL | ALANINE AMINOTRANSFERASE [3]: 40.33 u/L | ALBUMIN [3]: 3.67 G/DL | ALKALINE PHOSPHATASE [3]: 314 u/L | ASPARTATE AMINOTRANSFERASE [3]: 66 u/L | BLOOD UREA NITROGEN [3]: 12.33 mg/dL | CHLORIDE [3]: 108.33 MEQ/L | CHOLESTEROL [3]: 66 mg/dL | CREATINE PHOSPHOKINASE [3]: 136 u/L | CREATININE [3]: 0.63 mg/dL | GLUCOSE [3]: 161 mg/dL | PHOSPHORUS [3]: 12.37 mg/dL | POTASSIUM [3]: 7.3 MEQ/L | SODIUM [3]: 151.67 MEQ/L | TOTAL BILIRUBIN [3]: 0.33 mg/dL | TOTAL PROTEIN [3]: 6.57 G/DL
